From patent US7999004B2, “Compounds having estrogenic activity” (National Taiwan University, priority 2007, dated 2011)
Where two headings read alike, the source gives them in different places.

Key:
GAL4-hERα = target: T1, GAL4-hERα (Homo sapiens, UniProt P03372); assay: Transactivation assay for estrogen activity, GAL4-hERα LBD chimeric receptor with (UAS)4-alkaline phosphatase reporter in CHO-K1 cells; format: cell-based; details: for EC50: CHO-K1 cells, ALP reporter, read-out: EC50 value for ERα (converted); for ALP activity with increasing concentration, GAL4-hERα / concentration at which the maximal activation of ERα is achieved: dose response curve; for maximal activation of ERα: at the concentration of maximal activation (compound 2: 40 μg/mL; compound 6: 20 μg/mL)
T1 construct: GAL4hERα (or β) LBD chimeric receptors; expressed in transfected cells; host or cells: CHO-K1 (CCRC 60006), transient co-transfection with Fugene 6
T1 sequence (P03372 311-547 limits assumed): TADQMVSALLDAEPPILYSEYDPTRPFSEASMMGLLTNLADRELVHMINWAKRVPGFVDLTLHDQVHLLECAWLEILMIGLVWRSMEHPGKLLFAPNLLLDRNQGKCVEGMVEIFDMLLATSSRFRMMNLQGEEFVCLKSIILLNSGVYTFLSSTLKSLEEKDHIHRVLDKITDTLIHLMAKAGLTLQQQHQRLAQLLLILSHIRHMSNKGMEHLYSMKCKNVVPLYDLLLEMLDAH
Text: (§1) To evaluate the estrogen activity, the pBKCMV plasmid containing the gene of GAL4hERα (or β) LBD chimeric receptors was co-transfected with a plasmid containing the (UAS)4-alkaline phosphatase reporter gene into CHO-K1 cells. When a test sample was reacted with ER, the GAL4 was mediated to bind specifically with the UAS upstream of the reporter gene so as to activate the expression of the reporter gene, i.e. the alkaline phosphatase (ALP) enzyme. By measuring the alkaline phosphatase activity, we can detect the estrogen activity of the sample.
(§2) Cells were grown to confluence and seeded into 96-well microplates for a day. Before transfection, the two plasmids DNA in equal proportions were added to a mixture of the Fugene 6 transfection reagent and Ham's F12 medium, and then incubated for 20 min. At transfection, the fugene 6-DNA mixture was then added to the cells after the original FBS containing medium was removed.
(§3) After a 2-day culture, an aliquot of the medium was taken for the analysis of alkaline phosphatase activity.

GAL4-hERβ = target: T2, GAL4-hERβ (Homo sapiens, UniProt Q92731); assay: Transactivation assay for estrogen activity, GAL4-hERβ LBD chimeric receptor with (UAS)4-alkaline phosphatase reporter in CHO-K1 cells; format: cell-based; details: for EC50: CHO-K1 cells, ALP reporter, read-out: EC50 value for ERβ (converted); for ALP activity with increasing concentration, GAL4-hERβ / concentration at which the maximal activation of ERβ is achieved: dose response curve; for maximal activation of ERβ: at the concentration of maximal activation (compound 2: 40 μg/mL; compound 6: 20 μg/mL)
T2 construct: GAL4hERα (or β) LBD chimeric receptors; expressed in transfected cells; host or cells: CHO-K1 (CCRC 60006), transient co-transfection with Fugene 6
Text: as §1, §2, §3

[1] = three concentrations, fraction with compound 5

T2 sequence (Q92731 264-498 limits assumed): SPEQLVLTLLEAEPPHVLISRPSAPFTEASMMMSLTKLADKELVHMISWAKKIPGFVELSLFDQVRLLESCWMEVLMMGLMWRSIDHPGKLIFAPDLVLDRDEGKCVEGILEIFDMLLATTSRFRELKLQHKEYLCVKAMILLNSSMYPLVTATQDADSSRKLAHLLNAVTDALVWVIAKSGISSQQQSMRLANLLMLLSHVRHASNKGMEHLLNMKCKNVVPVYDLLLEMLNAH

Row | SMILES | EC50 (GAL4-hERα) [µM] | EC50 (GAL4-hERα; value in parentheses) [µM] | ALP activity with increasing concentration, GAL4-hERα (GAL4-hERα) | concentration at which the maximal activation of ERα is achieved (GAL4-hERα) [µg/mL] | concentration at which the maximal activation of ERα is achieved (GAL4-hERα; value in parentheses) [µM] | EC50 (GAL4-hERβ) [µM] | EC50 (GAL4-hERβ; value in parentheses) [µM] | ALP activity with increasing concentration, GAL4-hERβ (GAL4-hERβ) | concentration at which the maximal activation of ERβ is achieved (GAL4-hERβ) [µg/mL] | concentration at which the maximal activation of ERβ is achieved (GAL4-hERβ; value in parentheses) [µM] | maximal activation of ERα (GAL4-hERα) [fold] | maximal activation of ERβ (GAL4-hERβ) [fold] | ALP activity, activation of GAL4-hERα (GAL4-hERα; [1]) | ALP activity, activation of GAL4-hERβ (GAL4-hERβ; [1])
1 | COC1=C(OC)C(=O)C(C/C=C(\C)CC/C=C(\C)CC/C=C(\C)CC/C=C(\C)CC/C=C(\C)CC/C=C(\C)CC/C=C(\C)CC/C=C(\C)CCC=C(C)C)=C(C)C1=O [compound 3, coenzyme Q9] | 51 | 13.3 | dose-dependent increase | 20 | 25.2 | 1.06 | 1.06 | dose-dependent increase | 20 | 25.2 |  |  |  | 
2 | CC(C)=CCC/C(C)=C/CC/C(C)=C/CC/C(C)=C/CC/C(C)=C/CC/C(C)=C/CC/C(C)=C/CC/C(C)=C/CC[C@]1(C)CCc2cc(O)c(C)c(C)c2O1 [compound 6, γ-tocopherol-9] | 12.7 | 12.7 | dose-dependent increase | 20 | 26.64 | 3.19 | 3.2 | dose-dependent increase | 20 | 26.64 | 2.91 | 3.26 |  | 
3 | COc1c(O)c(C)c2c(c1OC)O[C@](C)(CC/C=C(\C)CC/C=C(\C)CC/C=C(\C)CC/C=C(\C)CC/C=C(\C)CC/C=C(\C)CC/C=C(\C)CCC=C(C)C)C=C2 [compound 2, hydro-Q9 chromene] | 10.7 | 10.8 | dose-dependent increase | 40 | 50.34 | 7.36 | 7.4 | dose-dependent increase | 40 | 50.34 | 3.68 | 3.79 |  | 
4 | COc1cc(/C=C/C(=O)OCC(O)CO)ccc1O (stereo not shown) [compound 5, 1-feruloyl glycerol] |  |  |  |  |  |  |  |  |  |  |  |  | significant increases in the ALP activity | significant increases in the ALP activity
5 | Cc1c(C)c2c(c(C)c1O)CC[C@@](C)(CCC[C@H](C)CCC[C@H](C)CCCC(C)C)O2 [compound 1, RRR-α-tocopherol] | 2.51 | 2.5 |  |  |  | 9.19 | 9.2 |  |  |  |  |  |  | 
